In patent US8440646B1 (priority 2006, dated 2013):
≈ marks a conversion by molar mass, not a printed value. Where two headings read alike, the source gives them in different places.

How the values were obtained:
[1] = tested on: S. pneumoniae 157E; assay: microbe, parasite or virus in culture; type: cell-based; conditions: Streptococcus pneumoniae
[2] = tested on: B. anthracis panel; assay: microbe, parasite or virus in culture; type: cell-based; conditions: Bacillus anthracis
[3] = tested on: B. cereus 97/4144; assay: microbe, parasite or virus in culture; type: cell-based; conditions: Bacillus cereus
[4] = tested on: S. aureus RN450; assay: microbe, parasite or virus in culture; type: cell-based; conditions: Staphylococcus aureus
[5] = tested on: B. anthracis V770NPIR; type: cell-based
[6] = tested on: S. aureus RN4250; assay: microbe, parasite or virus in culture; type: cell-based
[7] = tested on: E. faecalis 29212; assay: microbe, parasite or virus in culture; type: cell-based; conditions: Enterococcus faecalis
[8] = tested on: B. anthracis Ame; assay: microbe, parasite or virus in culture; type: cell-based; conditions: Bacillus anthracis
[9] = tested on: E. faecium 494; assay: microbe, parasite or virus in culture; type: cell-based; conditions: Enterococcus faecium
[10] = tested on: S. pneumoniae PBS1339; set-up: species or system mice; conditions: mouse, in vivo
[11] = tested on: Protein synthesis of S. aureus RN450; assay: microbe, parasite or virus in culture; type: cell-based; conditions: Staphylococcus aureus
[12] = tested on: Peptidoglycan synthesis of S. aureus RN450; assay: microbe, parasite or virus in culture; type: cell-based; conditions: Staphylococcus aureus
[13] = tested on: B. cereus 95/3032; assay: microbe, parasite or virus in culture; type: cell-based; conditions: Bacillus cereus
[14] = tested on: protein synthesis; conditions: cited from earlier work
[15] = tested on: B. anthracis Vollum1B; assay: microbe, parasite or virus in culture; type: cell-based; conditions: Bacillus anthracis
[16] = tested on: S. pneumoniae 700905; assay: microbe, parasite or virus in culture; type: cell-based; conditions: Streptococcus pneumoniae
[17] = tested on: B. cereus 98/2620; assay: microbe, parasite or virus in culture; type: cell-based; conditions: Bacillus cereus
[18] = tested on: B. cereus 98/2658; assay: microbe, parasite or virus in culture; type: cell-based; conditions: Bacillus cereus
[19] = tested on: B. anthracis Sterne; assay: microbe, parasite or virus in culture; type: cell-based; conditions: Bacillus anthracis
[20] = tested on: B. anthracis V770; assay: microbe, parasite or virus in culture; type: cell-based; conditions: Bacillus anthracis
[21] = tested on: S. aureus MRSA5; assay: microbe, parasite or virus in culture; type: cell-based; conditions: Staphylococcus aureus
[22] = tested on: 16S rRNA; conditions: cited from earlier work

SMILES: C[C@H]1c2cccc(O)c2C(=O)C2=C(O)[C@]3(O)C(=O)C(C(N)=O)=C(O)[C@@H](N(C)C)[C@@H]3[C@@H](O)[C@@H]21 [Doxycycline, reference compound]
- MIC [1]: 0.06 µg/mL (≈ 0.135 µM)
- MIC50 [2]: 0.06 µg/mL (≈ 0.135 µM)
- MIC90 [2]: 0.25 µg/mL (≈ 0.563 µM)
- MIC [3]: 4 µg/mL (≈ 9 µM)
- MIC [4]: 0.06 µg/mL (≈ 0.135 µM)
- susceptibility in words [5]: fully doxycycline-resistant
- susceptibility in words [6]: resistant
- MIC ([6]; Staphylococcus aureus, RN4250): 4 µg/mL (≈ 9 µM)
- MIC [7]: 4 µg/mL (≈ 9 µM)
- MIC [8]: < 0.03 µg/mL
- MIC [9]: 16 µg/mL (≈ 36 µM)
- PD50 ([10]; iv): 7.1 mg/kg
- PD50 ([10]; po): 35.3 mg/kg
- IC50 ([11]; read-out: Protein synthesis IC50): < 0.03 µg/mL
- IC90 ([11]; read-out: Protein synthesis IC90): < 0.03 µg/mL
- IC50 ([12]; read-out: Peptidoglycan synthesis IC50): 3.9 µg/mL (≈ 8.78 µM)
- IC90 ([12]; read-out: Peptidoglycan synthesis IC90): 18.2 µg/mL (≈ 41 µM)
- MIC [13]: ≤ 0.06 µg/mL
- inhibition of protein synthesis in words [14]: potent inhibitors of protein synthesis
- MIC [15]: 0.06 µg/mL (≈ 0.135 µM)
- MIC [16]: 4 µg/mL (≈ 9 µM)
- MIC [17]: 4 µg/mL (≈ 9 µM)
- MIC [18]: ≤ 0.06 µg/mL
- MIC [19]: 0.12 µg/mL (≈ 0.27 µM)
- MIC [20]: 1 µg/mL (≈ 2.25 µM)
- MIC [21]: 4 µg/mL (≈ 9 µM)
- effect on reactivity of nucleotides within the 16S rRNA (chemical footprint) [22]: affect the reactivity of nucleotides
